Test results reported in PubChem BioAssay (NCI).
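All cell lines were grown in 96-well plates and treated with compound for 48 hours. At the GI50, growth is halved. Definition used: TGI = concentration required for complete inhibition of growth.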

Legend:
Test in all cases: inhibition of tumour cell growth, NCI panel, 48 h
UACC-257 melanoma = tested on: UACC-257 melanoma
TK-10 renal = tested on: TK-10 renal
M14 melanoma = tested on: M14 melanoma
T-47D breast = tested on: T-47D breast
OVCAR-3 ovarian = tested on: OVCAR-3 ovarian
ACHN renal = tested on: ACHN renal
DU-145 prostate = tested on: DU-145 prostate
HCT-15 colon = tested on: HCT-15 colon
DLD-1 colon = tested on: DLD-1 colon

Row | Structure (SMILES) | GI50 (UACC-257 melanoma) | TGI (UACC-257 melanoma) | GI50 (TK-10 renal) | TGI (TK-10 renal) | GI50 (M14 melanoma) | TGI (M14 melanoma) | GI50 (T-47D breast) | TGI (T-47D breast) | GI50 (OVCAR-3 ovarian) | TGI (OVCAR-3 ovarian) | GI50 (ACHN renal) | TGI (ACHN renal) | GI50 (DU-145 prostate) | TGI (DU-145 prostate) | GI50 (HCT-15 colon) | TGI (HCT-15 colon) | TGI (DLD-1 colon)
1 | O=C(NNS(=O)(=O)c1ccc(F)cc1)c1cccnc1Nc1ccc(Cl)cc1Cl | 11.8 µM | 51.9 µM | 33.8 µM | > 100 µM | 46.5 µM | > 100 µM | 18.7 µM | 98.1 µM | 29.7 µM | 94.5 µM | 46.1 µM | > 100 µM | 22.9 µM | 55.4 µM | 26.8 µM | 83.5 µM | 
2 | COc1ccc(C(=O)COc2cccc(/C=C3\CSc4ccc(Cl)cc4C3=O)c2)cc1 | 12.6 µM | 33.4 µM | 19.7 µM | 41.4 µM | 13.4 µM | 31.6 µM | 5.4 µM | 28.9 µM | 8.86 µM | 21.2 µM | 11.9 µM | 24.6 µM | 12.7 µM | 25.3 µM | 1.83 µM | 4.36 µM | 
3 | c1cc(-c2cn[nH]c2)cc(-c2cn[nH]c2)c1 |  | > 100 µM |  | > 100 µM |  | > 100 µM |  |  |  | > 100 µM |  |  |  |  |  | 96.4 µM | > 100 µM
4 | C[C@]12C3CC[C@@]4(CO)C[C@]3(CCC1[C@](C)(C(=O)O)CC[C@@H]2O)CC4=O (some centres not stated) | > 100 µM | > 100 µM | > 100 µM | > 100 µM | > 100 µM | > 100 µM | > 100 µM | > 100 µM | > 100 µM | > 100 µM | > 100 µM | > 100 µM | > 100 µM | > 100 µM | > 100 µM | > 100 µM | 
5 | COc1ccc(-c2nnc(N3CCN(C(=O)CN4CCN(c5ccc(Cl)cc5)CC4)CC3)nc2-c2ccc(OC)cc2)cc1 | 59.4 µM | > 100 µM | 58.5 µM | > 100 µM | 35.8 µM | > 100 µM | 4.51 µM | 74.8 µM | 28.7 µM | > 100 µM | 22.9 µM | > 100 µM | > 100 µM | > 100 µM | 15.8 µM | > 100 µM | 
6 | NC(Cc1ccnnc1)C(=O)O (configuration not stated) |  | > 100 µM |  | > 100 µM |  | > 100 µM |  | > 100 µM |  | > 100 µM |  | > 100 µM |  | > 100 µM |  | > 100 µM | 
7 | C(=C\c1nccc2c1[nH]c1ccccc12)/c1ccccc1 | 17.8 µM | 76.7 µM | 6.58 µM | 25.5 µM | 2.91 µM | > 100 µM | 3.6 µM | 28.2 µM | 2.31 µM | 6.65 µM | 4.82 µM | 20.8 µM | 3.5 µM | 12.3 µM | 2.43 µM | 17.5 µM | 
8 | COc1cc(NCC2COc3c(ccc(OC)c3OC)C2=O)c([N+](=O)[O-])cc1OC (configuration not stated) |  | > 100 µM |  | > 100 µM |  | > 100 µM |  | > 100 µM |  | > 100 µM |  | > 100 µM |  | > 100 µM |  | > 100 µM | 
